Test results reported in patent publication US8962587B2, “Gene delivery of OCT4 and SirT1 and pharmaceutical compositions thereof” (Taipei Veterans General Hospital, priority 2011, dated 2015).

Test system: aRPE cells
Experiment: intracellular ROS, GSH, MDA, antioxidant enzyme activity and survival in aRPE cells (basal, H2O2, BSO, Tempol)
Type: cell-based, human
Conditions: aRPE-PU cells, pretreatment 0.5 mmol/L, then 100 μM H2O2, p<0.05 vs H2O2
Experimental: The results were expressed as nmol/g protein. Total SOD activity was determined by Superoxide Dismutase Activity Colorimetric Assay Kit (Abcam) according to manufacturer's protocol. SOD activity was expressed as units/g protein. GSH-Px and CAT activities were measured by glutathione peroxidase cellular activity assay kit and catalase assay kit, both are purchased from Sigma.
Cultured aRPE cells were washed with PBS twice and treated with 100 μM H2O2. After 8 hours, the medium was removed, and the cells were collected for the subsequent experiments. […] In brief, cells were incubated with […] DCFH-DA in culture medium for 30 min at 37° C., followed by washing with PBS and flow cytometric analysis. The intracellular GSH content was detected by colorimetric assay using the GSH-400 kit (OXIS International, Portland, Oreg., USA). In the GSH-400 assay, 4-chloro-1-methyl-7-trifluoromethyl-quinolinium methylsulfate was added to react with all mercaptans in the sample, leading to the formation of substitution products, […]. Then, 30% sodium hydroxide was used to mediate a β-elimination reaction and specifically transform GSH-thioester into a chromophoricthione with a maximal absorbance wavelength at 400 nm that was detected by a spectrophotometer.

SMILES: CC1(C)CC(O)CC(C)(C)N1[O] [Tempol, 4-hydroxy-2,2,6,6-tetramethylpiperidinyloxy]
- H2O2-induced ROS production: decreased
- H2O2-induced cell death: decreased
